The test system of one series is adult, female mosquitoes. In words: Topical application on adult female mosquitoes (24-h mortality, 1-h knockdown). Type of series: in vivo, mosquito. As to conditions: for ED50: read-out: KD50 (ug/g mosquito); for LD50: read-out: LD50 (ug/g mosquito); for insecticidal properties compared with natural pogostone, natural pyrethrins or terpenoids: words, refers to Table 1.

The test system of the next series is adult female mosquitoes. The series can be described thus: whole plant or invertebrate. The following applies: for pest or weed control at 0.5 % / pest or weed control at 1.5 % / mortality at 0.5 % / mortality at 1.5 %: Culicidae; for pest or weed control at 0.5 % / pest or weed control at 1.5 % / mortality at 0.5 % / mortality at 1.5 % / LD50: topical; for pest or weed control at 0.5 % / pest or weed control at 1.5 %: 1 h; for pest or weed control at 0.5 %: read-out: Knockdown at 0.5%; for pest or weed control at 1.5 %: read-out: Knockdown at 1.5%; for mortality at 0.5 % / mortality at 1.5 % / LD50: 24 h; for mortality at 0.5 %: read-out: Mortality at 0.5%; for mortality at 1.5 %: read-out: Mortality at 1.5%; for Percent Knockdown at 1 Hour / Percent Mortality: mosquitoes; for Percent Knockdown at 1 Hour: 0.5% solutions; for Percent Mortality: 24 hours; for LD50: read-out: 24-hour Mortality LD50 (μg/g mosquito); for ranking in knockdown and mortality screenings: words. The method, then:
The first group of DHAA-based derivatives that were tested included Formula A2, Formula B3, Formula C3, and Formula D3. A solution of 0.5% or 1.5% of each of these compounds was applied to the mosquitoes, as described above. […] Acetone was used as a control.

Where [1] appears, read: Mosquito Knockdown Properties (1 hour), topical application.
Where [2] appears, read: Mosquito Toxicity (24 hours), topical application to pronotum.

“Also recorded” adds a separate entry of the source. Read-outs that look alike come from different tables or passages of the source.

As usually defined, the mortality is the share of the test organisms that died.

On to `CC(C)CCC(=O)c1c(O)cc(C(C)(C)C)oc1=O` [Formula 11], for which the ED50 in the series with adult, female mosquitoes (setting [1]) was more than 1500 mg/kg. The LD50 in the series with adult, female mosquitoes (setting [2]) is more than 1500 mg/kg.
For the molecule `CC(=O)CCC(=O)c1c(O)cc(C)oc1=O` [Formula C17], in the series on adult female mosquitoes, the pest or weed control at 0.5 % amounted to 27%, the pest or weed control at 1.5 % worked out at 13%, the mortality at 0.5 % was 47% and the mortality at 1.5 % was found to be 7%.
On the same counts, the results for `Cc1cc2occ(CC(C)C)c(=O)c2c(=O)o1` [Formula C22] are 10%, 10%, 7% and 13%.
In the case of `CCCCCCCC(=O)c1c(O)c2ccccc2oc1=O` [Formula 25], the ED50 with adult, female mosquitoes (topical, 1 h) was more than 1500 mg/kg. In addition, in the series with adult, female mosquitoes (topical, 24 h), the LD50 was more than 1500 mg/kg.
With `Cc1cc(O)c(C(=O)COC(C)C)c(=O)o1` [Formula C3], in the series with adult female mosquitoes, the “Percent Knockdown at 1 Hour” value was found to be 98%; the LD50 is 183 mg/kg; the “ranking in knockdown and mortality screenings” value (“ranking” for short) is “performed the best in terms of highest percent knockdown and mortality; also recorded: performed the best in the initial knockdown and mortality screenings”. The “Percent Mortality” value in the series with adult female mosquitoes (at 0.5%) was 89%. For the same molecule, the “Percent Mortality” value in the series on adult female mosquitoes (at 1.5%) is on record as 88%.
Consider `CCCCCCCCCC(=O)c1c(O)c2ccccc2oc1=O` [Formula 18], for which the ED50 with adult, female mosquitoes (topical, 1 h) is more than 1500 mg/kg. Further, the LD50 in the series on adult, female mosquitoes (topical, 24 h) is more than 1500 mg/kg.
With `CC(C)C(O)CC(=O)c1c(O)c2ccccc2oc1=O` (stereo not shown) [Formula C25], in the series with adult female mosquitoes, the pest or weed control at 0.5 % came to 93%, the pest or weed control at 1.5 % worked out at 100%, the mortality at 0.5 % was found to be 100% and the mortality at 1.5 % is 100%. Further, in the series on adult female mosquitoes, the “ranking” value is “appear to be the most potent insecticidal compounds”.
Consider `C=CCCC(=O)c1cc2ccccc2oc1=O` [Formula 22], for which, in the series with adult, female mosquitoes (topical, 24 h), the LD50 was more than 1500 mg/kg.
`CC(C)CCC(=O)c1c(O)cc(-c2ccccc2)oc1=O` [Formula 9]: the ED50 with adult, female mosquitoes (setting [1]) was more than 1500 mg/kg. For the same molecule, the LD50 with adult, female mosquitoes (setting [2]) is more than 1500 mg/kg.
As for `Cc1cc2c(c(=O)o1)C(=O)CC(C(C)C)O2` (stereo not shown) [Formula C16], in the series with adult female mosquitoes, the pest or weed control at 0.5 % amounted to 0%, the pest or weed control at 1.5 % was determined as 7%, the mortality at 0.5 % was determined as 3% and the mortality at 1.5 % is 3%.
With `Cc1cc(O)c(C(=O)CCC=O)c(=O)o1` [Formula C18], in the series with adult female mosquitoes, the pest or weed control at 0.5 % was 3%, the pest or weed control at 1.5 % was determined as 0%, the mortality at 0.5 % was 3% and the mortality at 1.5 % was 7%.
Take `Cc1cc(O)c(C(=O)CCC(O)CBr)c(=O)o1` (stereo not shown) [Formula C20]: in the series with adult female mosquitoes, the pest or weed control at 0.5 % turned out to be 17%, the pest or weed control at 1.5 % worked out at 10%, the mortality at 0.5 % came out at 10% and the mortality at 1.5 % stood at 20%.
For `Cc1ccc(C(C)C)c(O)c1` [Thymol, reference compound], in the series with adult, female mosquitoes (setting [1]), the ED50 worked out at 1700 mg/kg.
On to `Cc1ccc2oc(=O)c(C(=O)CCC(C)C)c(O)c2c1` [Formula 21], for which, in the series on adult, female mosquitoes (topical, 1 h), the ED50 is more than 1500 mg/kg. In addition, the LD50 in the series on adult, female mosquitoes (topical, 24 h) turned out to be 534 mg/kg.
As for `CCCCCCCCCC(=O)c1c(O)c2ccccc2n(C)c1=O` [Formula 20], the LD50 with adult, female mosquitoes (topical, 24 h) was more than 1500 mg/kg.
As for `CCC(=O)c1c(O)cc(C)oc1=O` [Formula 7], the ED50 in the series with adult, female mosquitoes (setting [1]) is more than 1500 mg/kg. For the same molecule, in the series on adult, female mosquitoes (setting [2]), the LD50 is more than 1500 mg/kg.
Regarding `CC(=O)C1=Cc2ccccc2OC1` [Formula 16], the LD50 in the series with adult, female mosquitoes (topical, 24 h) is more than 1500 mg/kg.
For `CC(C)CCC(=O)C1=Cc2ccccc2OC1` [Formula 17], the ED50 in the series on adult, female mosquitoes (topical, 1 h) is more than 1500 mg/kg. In the series on adult, female mosquitoes (topical, 24 h), the LD50 is more than 1500 mg/kg.
Regarding `Cc1ccc(C(C)C)cc1O` [Carvacrol, reference compound], in the series with adult, female mosquitoes (topical, 1 h), the ED50 is 2000 mg/kg. For the same molecule, the LD50 in the series on adult, female mosquitoes (topical, 24 h) was 3400 mg/kg; in the series on adult female mosquitoes, 3400 mg/kg.
As to `Cc1cc(O)c(C(=O)Nc2ccccc2)c(=O)o1` [Formula A3], the “Percent Knockdown at 1 Hour” value with adult female mosquitoes was 4%. For the same molecule, the “Percent Mortality” value in the series with adult female mosquitoes (at 0.5%) is recorded as 5%; with adult female mosquitoes (at 1.5%), 19%.
For the molecule `C=CCCC(=O)c1c(O)cc(C)oc1=O` [Formula C26], in the series with adult female mosquitoes, the pest or weed control at 0.5 % came out at 100%, the pest or weed control at 1.5 % turned out to be 97%, the mortality at 0.5 % came out at 100% and the mortality at 1.5 % is 100%. For the same molecule, in the series on adult female mosquitoes, the “ranking” value is on record as “appear to be the most potent insecticidal compounds”.
As to `CC(=O)c1c(O)c2ccccc2oc1=O` [Formula C27], in the series with adult female mosquitoes, the pest or weed control at 0.5 % is 100%, the pest or weed control at 1.5 % was determined as 73%, the mortality at 0.5 % is 97% and the mortality at 1.5 % stood at 83%.
The matching figures for `Cc1cc(O)c(C(=O)COCC(=O)O)c(=O)o1` [Formula C14]: 7%, 0%, 13% and 40%.
Take `CCCCC(CC)CNC(=O)c1c(O)cc(C)oc1=O` (stereo not shown) [Formula B3]: the “Percent Knockdown at 1 Hour” value in the series on adult female mosquitoes is listed as 2%. Moreover, the results for the “Percent Mortality” value in the series with adult female mosquitoes (at 0.5%) and with adult female mosquitoes (at 1.5%) were 9% and 16%, respectively.
For the molecule `CC(C)C(=O)c1c(O)c2cc(Cl)ccc2oc1=O` [Formula 34], in the series on adult, female mosquitoes (setting [1]), the ED50 was more than 1500 mg/kg. Further, the LD50 in the series with adult, female mosquitoes (setting [2]) was found to be 111 mg/kg. In addition, the “insecticidal properties compared with natural pogostone, natural pyrethrins or terpenoids” value in the series on adult, female mosquitoes is “possessed better insecticidal properties than natural pogostone”.
Turning to `Cc1cc(O)c(C(=O)CC(O)C2CCCCC2)c(=O)o1` (stereo not shown) [Formula C15], in the series with adult female mosquitoes, the pest or weed control at 0.5 % came to 23%, the pest or weed control at 1.5 % stood at 50%, the mortality at 0.5 % amounted to 33% and the mortality at 1.5 % is 63%. Moreover, in the series with adult female mosquitoes, the “ranking” value is on record as “appear to be the most potent insecticidal compounds”.
`O=C(c1c(O)c2ccccc2oc1=O)C1CCC1` [Formula 27]: in the series with adult, female mosquitoes (topical, 1 h), the ED50 was more than 1500 mg/kg. In addition, the LD50 was 28.8 mg/kg in the series with adult, female mosquitoes (topical, 24 h) and 29 mg/kg in the series with adult female mosquitoes. The “insecticidal properties compared with natural pogostone, natural pyrethrins or terpenoids” value in the series with adult, female mosquitoes is “possessed better insecticidal properties at least as well as natural pyrethrins”. In the series with adult female mosquitoes (in vivo), the “1-hour Knockdown EC50 (μg/g mosquito)” value was more than 1500 μg/g mosquito.
On to `Cc1cc(O)c(C(=O)/C=C/C(C)(C)C)c(=O)o1` [Formula C21], for which, in the series with adult female mosquitoes, the pest or weed control at 0.5 % amounted to 3%, the pest or weed control at 1.5 % turned out to be 7%, the mortality at 0.5 % came out at 0% and the mortality at 1.5 % came out at 0%.
Regarding `CCOC(=O)/C(O)=C/C(=O)c1c(O)cc(C)oc1=O` [Formula 8], in the series with adult, female mosquitoes (setting [1]), the ED50 is more than 1500 mg/kg. Besides, in the series on adult, female mosquitoes (setting [2]), the LD50 was more than 1500 mg/kg.
For `CC(C)CCC(=O)C1C(=O)N(C)C(=O)N(C)C1=O` [Formula C24], in the series on adult female mosquitoes, the pest or weed control at 0.5 % was 93%, the pest or weed control at 1.5 % amounted to 100%, the mortality at 0.5 % came to 97% and the mortality at 1.5 % worked out at 97%. Further, the “ranking” value in the series on adult female mosquitoes is “appear to be the most potent insecticidal compounds”.
